Patent US20130023645A1 (priority 2006, published 2013)
“And” between values parts separate entries of the source, which are not always exact repeats. Identical values can stand only once. Positions of bridges follow the written chain, without caps; N, C: chain ends. Non-standard residues stand in square brackets, D forms with d. Residues, ends and D or L forms follow the SMILES beside them. ξ: configuration not given here. Ala(indol-2-yl) = N[C@@H](Cc1cc2ccccc2[nH]1)C(=O)O; AllylGly = C=CC[C@H](N)C(=O)O; ξP = O=C(O)C1CCCN1

Target: T1, neuronal-type nicotinic receptors (Bos taurus, UniProt Q07263+Q8SPU6)
T1 construct: monolayer cultures of bovine adrenal chromaffin cells; endogenous in cells; host or cells: bovine adrenal chromaffin cells (primary monolayer cultures)
Format: cell-based, bovine

T1 sequence (Q07263 22-495): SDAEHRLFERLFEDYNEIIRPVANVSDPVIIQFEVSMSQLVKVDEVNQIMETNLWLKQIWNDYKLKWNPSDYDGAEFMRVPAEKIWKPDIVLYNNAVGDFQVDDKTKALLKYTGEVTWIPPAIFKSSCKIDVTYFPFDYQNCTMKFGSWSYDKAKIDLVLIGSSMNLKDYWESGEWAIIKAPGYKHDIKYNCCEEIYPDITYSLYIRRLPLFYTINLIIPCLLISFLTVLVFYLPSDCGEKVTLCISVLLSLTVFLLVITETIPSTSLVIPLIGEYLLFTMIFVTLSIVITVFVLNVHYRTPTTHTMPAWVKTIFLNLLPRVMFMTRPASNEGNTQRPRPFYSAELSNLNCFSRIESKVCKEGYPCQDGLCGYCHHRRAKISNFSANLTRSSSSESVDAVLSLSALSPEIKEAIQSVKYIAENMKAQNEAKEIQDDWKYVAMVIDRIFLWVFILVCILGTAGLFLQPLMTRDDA
T1 sequence (Q8SPU6 20-496): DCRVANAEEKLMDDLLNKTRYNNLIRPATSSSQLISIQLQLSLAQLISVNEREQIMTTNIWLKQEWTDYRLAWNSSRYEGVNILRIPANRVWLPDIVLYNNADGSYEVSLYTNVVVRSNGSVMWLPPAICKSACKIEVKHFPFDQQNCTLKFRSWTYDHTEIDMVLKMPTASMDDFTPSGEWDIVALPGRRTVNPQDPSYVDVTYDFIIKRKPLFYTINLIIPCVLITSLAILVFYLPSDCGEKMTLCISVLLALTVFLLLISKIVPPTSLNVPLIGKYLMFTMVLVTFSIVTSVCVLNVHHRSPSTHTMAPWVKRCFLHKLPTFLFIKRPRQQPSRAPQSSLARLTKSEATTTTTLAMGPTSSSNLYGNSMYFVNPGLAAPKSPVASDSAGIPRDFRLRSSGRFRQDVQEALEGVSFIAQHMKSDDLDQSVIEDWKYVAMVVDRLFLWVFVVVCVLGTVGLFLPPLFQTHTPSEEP

C[C@@H]1NC(=O)[C@@H]2CSSC[C@H](NC(=O)CN)C(=O)N[C@@H](CC=CC[C@@H](C(N)=O)NC(=O)[C@H](CCCNC(=N)N)NC(=O)[C@H](Cc3cc4ccccc4[nH]3)NC1=O)C(=O)N[C@@H](CO)C(=O)N[C@@H](CC(=O)O)C(=O)N1CCCC1C(=O)N[C@@H](CCCNC(=N)N)C(=O)N2 (stereo partly drawn) [compound 119, [2,8]-Cystino-[3,12]-Dicarba Conotoxin ImI: NH2-Gly-Cys-c[Hag-Ser-Asp-Pro-Arg-Cys-Ala-Trp-Arg-Hag]-NH2] (H-GC[AllylGly]SD[ξP]RCA[Ala(indol-2-yl)]R[AllylGly]-NH2; disulfide 2-8; staple 3-12)
Adrenaline Release, % control: 83.420% and 58.888% | Adrenaline Release, mean: 3.77% and 2.76% | Adrenaline Release, single determinations (1st-4th): 3.31% and 3.67% and 4.14% and 3.98% and 2.32% and 2.95% and 2.76% and 3.02% | Noradrenaline Release, % control: 55.971% and 78.400% | Noradrenaline Release, % inhibition: 21.600% | Noradrenaline Release, mean: 4.15% and 5.52% | Noradrenaline Release, single determinations (1st-4th): 3.22% and 4.58% and 3.99% and 4.81% and 4.89% and 5.75% and 5.73% | noradrenaline released, basal release (0.72%) subtracted: 3.43%
